According to patent US7851510B2, “Gossypol derivatives, production method thereof and uses of same” (Centre National de la Recherche Scientifique (C.N.R.S.), priority 2004, dated 2010):

system: KB tumour cell line; assay: Cytotoxicity vis-à-vis the KB tumour cell line; assay type: cell-based; settings: Homo sapiens
Description: The cytotoxicity of the compound vis-à-vis the KB tumour cell line was measured as is described in Dao et al. (2003) Bioorg. Med. Chem. 11:2001-2006.

Row | SMILES | IC50 [µM]
1 | CC1=C(C2=C(C)C(=O)c3c(c(CO)c(O)c(O)c3C(C)C)C2=O)C(=O)c2c(CO)c(O)c(O)c(C(C)C)c2C1=O [(5), 6,7,6′,7′-tetrahydroxy-8,8′-bis-hydroxymethyl-5,5′-diisopropyl-3,3′-dimethyl-[2,2′]binaphthalenyl-1,4,1′,4′-tetraone] | 1
2 | CC1=C(C2=C(C)C(=O)c3c(c(CSc4ccccc4)c(O)c(O)c3C(C)C)C2=O)C(=O)c2c(CSc3ccccc3)c(O)c(O)c(C(C)C)c2C1=O [(7), 6,7,6′,7′-tetrahydroxy-5,5′-diisopropyl-3,3′-dimethyl-8,8′-bis-phenylsulphanylmethyl-[2,2′]binaphthalenyl-1,4,1′,4′-tetraone] | 4
3 | CC1=C(C2=C(C)C(=O)c3c(c(CSc4ccc(C)cc4)c(O)c(O)c3C(C)C)C2=O)C(=O)c2c(CSc3ccc(C)cc3)c(O)c(O)c(C(C)C)c2C1=O [(8), 6,7,6′,7′-tetrahydroxy-5,5′-diisopropyl-3,3′-dimethyl-8,8′-bis-p-tolylsulphanylmethyl-[2,2′]binaphthalenyl-1,4,1′,4′-tetraone] | 6.5
4 | COc1ccc(SCc2c(O)c(O)c(C(C)C)c3c2C(=O)C(C2=C(C)C(=O)c4c(c(CSc5ccc(OC)cc5)c(O)c(O)c4C(C)C)C2=O)=C(C)C3=O)cc1 [(9), 6,7,6′,7′-tetrahydroxy-5,5′-diisopropyl-8,8′-bis-(4-methoxy-phenylsulphanylmethyl)-3,3′-dimethyl-[2,2′]binaphthalenyl-1,4,1′,4′-tetraone] | 6.5
5 | CC1=C(C2=C(C)C(=O)c3c(c(CSc4ccc(Cl)cc4)c(O)c(O)c3C(C)C)C2=O)C(=O)c2c(CSc3ccc(Cl)cc3)c(O)c(O)c(C(C)C)c2C1=O [(10), 6,7,6′,7′-tetrahydroxy-5,5′-diisopropyl-8,8′-bis-(4-chloro-phenylsulphanylmethyl)-3,3′-dimethyl-[2,2′]binaphthalenyl-1,4,1′,4′-tetraone] | 3
6 | CC1=C(C2=C(C)C(=O)c3c(c(CSc4c(F)c(F)cc(F)c4F)c(O)c(O)c3C(C)C)C2=O)C(=O)c2c(CSc3c(F)c(F)cc(F)c3F)c(O)c(O)c(C(C)C)c2C1=O [(11), 6,7,6′,7′-tetrahydroxy-5,5′-diisopropyl-8,8′-bis-(2,3,5,6-tetrafluoro-phenylsulphanylmethyl)-3,3′-dimethyl-[2,2′]binaphthalenyl-1,4,1′,4′-tetraone] | 8.5
